# Source: ChEMBL document CHEMBL4418262, “Heterocyclic compounds for the inhibition of pask” (2016)
# Biological target: PAS domain-containing serine/threonine-protein kinase (Homo sapiens, UniProt Q96RG2)
# Experiment: Inhibition of GST-tagged human recombinant PASK expressed in Baculovirus based system using Ulight-peptide substrate incubated for 2 hrs by TR-FRET assay
# Chain of PAS domain-containing serine/threonine-protein kinase (Q96RG2 whole entry, the tested form may be a part): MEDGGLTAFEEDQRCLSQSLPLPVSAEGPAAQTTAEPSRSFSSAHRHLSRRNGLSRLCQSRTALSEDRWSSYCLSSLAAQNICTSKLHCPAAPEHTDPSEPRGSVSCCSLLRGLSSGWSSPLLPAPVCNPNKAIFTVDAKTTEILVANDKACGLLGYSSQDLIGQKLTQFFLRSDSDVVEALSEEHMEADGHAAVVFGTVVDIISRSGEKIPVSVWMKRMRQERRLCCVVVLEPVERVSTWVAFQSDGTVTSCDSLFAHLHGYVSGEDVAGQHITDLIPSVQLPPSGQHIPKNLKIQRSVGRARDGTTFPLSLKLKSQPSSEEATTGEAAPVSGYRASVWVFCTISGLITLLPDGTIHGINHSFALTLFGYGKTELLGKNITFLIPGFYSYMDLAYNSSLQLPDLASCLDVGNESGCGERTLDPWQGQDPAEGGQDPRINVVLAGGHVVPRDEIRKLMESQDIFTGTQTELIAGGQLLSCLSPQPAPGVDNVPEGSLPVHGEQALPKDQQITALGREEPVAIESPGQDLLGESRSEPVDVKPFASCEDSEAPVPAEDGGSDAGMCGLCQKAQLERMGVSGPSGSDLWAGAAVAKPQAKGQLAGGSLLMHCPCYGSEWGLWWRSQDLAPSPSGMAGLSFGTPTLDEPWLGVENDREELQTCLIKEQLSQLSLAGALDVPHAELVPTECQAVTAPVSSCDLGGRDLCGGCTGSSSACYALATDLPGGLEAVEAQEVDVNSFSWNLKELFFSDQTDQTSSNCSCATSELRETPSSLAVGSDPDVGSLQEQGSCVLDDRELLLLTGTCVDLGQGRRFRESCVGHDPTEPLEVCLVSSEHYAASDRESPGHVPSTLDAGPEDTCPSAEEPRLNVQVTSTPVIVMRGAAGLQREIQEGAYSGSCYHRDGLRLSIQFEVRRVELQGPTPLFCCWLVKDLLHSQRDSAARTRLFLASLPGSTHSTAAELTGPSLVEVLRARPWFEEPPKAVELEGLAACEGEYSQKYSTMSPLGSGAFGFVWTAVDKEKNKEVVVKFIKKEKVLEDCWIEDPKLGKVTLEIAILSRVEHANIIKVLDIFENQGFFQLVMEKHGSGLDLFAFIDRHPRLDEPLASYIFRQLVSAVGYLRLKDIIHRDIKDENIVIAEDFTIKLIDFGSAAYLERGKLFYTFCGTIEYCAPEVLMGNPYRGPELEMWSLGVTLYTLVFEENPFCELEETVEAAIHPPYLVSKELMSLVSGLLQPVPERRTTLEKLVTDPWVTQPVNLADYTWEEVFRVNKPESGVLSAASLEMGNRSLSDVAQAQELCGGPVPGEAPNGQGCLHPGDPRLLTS
row,IC50 [µM],SMILES
1,≤ 10,CN(c1nc2cc(C(=O)O)ccc2nc1-c1ccc(F)cc1)C1CCC(O)CC1 (centres undefined)
2,≤ 10,CC(C)N(C)c1nc2cc(C(=O)O)ccc2nc1-c1coc2ccc(C(F)(F)F)cc12
3,≤ 10,C[C@H]1CCCN1c1nc2cc(C(=O)O)ccc2nc1-c1coc2ccc(C(F)(F)F)cc12
4,≤ 10,C[C@H]1CCCCN1c1nc2cc(C(=O)O)ccc2nc1-c1cc2cc(F)ccc2o1
